The test system of data set [1] is SW620/AD300. As to the kind of experiment: Reversal of multi-drug resistance in human SW620/AD300 cells assessed as decrease in colony number at 20 uM presence of 1 uM of paclitaxel incubated for 7 days by crystal violet staining based analysis. The format is functional, cell-based. Particulars: time 7.0 day.
The test system of data set [2] is SW620/AD300. In words: Reversal of multi-drug resistance in human SW620/AD300 cells assessed as increase in frequency of cells in G2/M phase at 20 uM presence of 1 uM of paclitaxel incubated for 24 hrs by PI staining based flow cytometry analysis. The data set is classed as functional, cell-based.
Data set [3] relates to SW620/AD300. As to the kind of experiment: Inhibition of colony formation in human SW620/AD300 cells assessed as decrease in colony number at 20 uM incubated for 7 days by crystal violet staining based analysis. The data set is classed as functional, cell-based. The settings on record: time 7.0 day.
Data set [4] deals with SW620/AD300. As to the kind of experiment: Reversal of multi-drug resistance in human SW620/AD300 cells assessed as decrease in frequency of cells in G0/G1 phase at 20 uM presence of 1 uM of paclitaxel incubated for 24 hrs by PI staining based flow cytometry analysis. The data set is classed as functional, cell-based. Background: In flow cytometry, cells or beads pass a laser one at a time.

The target of data set [5] is ATP-dependent translocase ABCB1 (Homo sapiens, UniProt P08183). As to the kind of experiment: Induction of thermal stabilization of P-gp in multidrug resistant human SW620/AD300 cells at 20 uM incubated for 30 mins by CESTA analysis. The data set is classed as cell-based. The settings on record: sw620/ad300, 0.5 h.
The test system of data set [6] is SW620/AD300. In words: Cytotoxicity against multidrug resistant human SW620/AD300 cells assessed as inhibition of cell viability at 20 uM measured after 72 hrs in presence of paclitaxel by CCK-8 method relative to control. The format is functional. Background: Tetrazolium dyes change colour on reduction, which living cells bring about.
Data set [7] deals with SW620/AD300. As to the kind of experiment: Reversal of multi-drug resistance in human SW620/AD300 cells assessed as decrease in colony number at 20 uM presence of 0.25 uM of paclitaxel incubated for 7 days by crystal violet staining based analysis. The data set is classed as functional, cell-based. Particulars: time 7.0 day.
Data set [8] concerns SW620/AD300. In words: Cytotoxicity against multidrug resistant human SW620/AD300 cells assessed as inhibition of cell viability at 1 uM measured after 72 hrs by CCK-8 method relative to control. The format is functional.
In data set [9] the test system is SW620/AD300. In words: Inhibition of colony formation in human SW620/AD300 cells assessed as decrease in colony number at 1 uM incubated for 7 days by crystal violet staining based analysis. The data set is classed as functional, cell-based. Particulars: time 7.0 day.

The source made the active and inactive calls. The calls are words filed in the database; no cut-off is given here.

This is an account of results in ChEMBL document CHEMBL6120991, “Chromones Featuring a [6,6]-Spiroketal Moiety Produced by Coculture of the Endophytic Fungi Chaetomium virescens and Xylaria Grammica” (J Nat Prod, 2025).

ATP-dependent translocase ABCB1, sequence (P08183 whole entry): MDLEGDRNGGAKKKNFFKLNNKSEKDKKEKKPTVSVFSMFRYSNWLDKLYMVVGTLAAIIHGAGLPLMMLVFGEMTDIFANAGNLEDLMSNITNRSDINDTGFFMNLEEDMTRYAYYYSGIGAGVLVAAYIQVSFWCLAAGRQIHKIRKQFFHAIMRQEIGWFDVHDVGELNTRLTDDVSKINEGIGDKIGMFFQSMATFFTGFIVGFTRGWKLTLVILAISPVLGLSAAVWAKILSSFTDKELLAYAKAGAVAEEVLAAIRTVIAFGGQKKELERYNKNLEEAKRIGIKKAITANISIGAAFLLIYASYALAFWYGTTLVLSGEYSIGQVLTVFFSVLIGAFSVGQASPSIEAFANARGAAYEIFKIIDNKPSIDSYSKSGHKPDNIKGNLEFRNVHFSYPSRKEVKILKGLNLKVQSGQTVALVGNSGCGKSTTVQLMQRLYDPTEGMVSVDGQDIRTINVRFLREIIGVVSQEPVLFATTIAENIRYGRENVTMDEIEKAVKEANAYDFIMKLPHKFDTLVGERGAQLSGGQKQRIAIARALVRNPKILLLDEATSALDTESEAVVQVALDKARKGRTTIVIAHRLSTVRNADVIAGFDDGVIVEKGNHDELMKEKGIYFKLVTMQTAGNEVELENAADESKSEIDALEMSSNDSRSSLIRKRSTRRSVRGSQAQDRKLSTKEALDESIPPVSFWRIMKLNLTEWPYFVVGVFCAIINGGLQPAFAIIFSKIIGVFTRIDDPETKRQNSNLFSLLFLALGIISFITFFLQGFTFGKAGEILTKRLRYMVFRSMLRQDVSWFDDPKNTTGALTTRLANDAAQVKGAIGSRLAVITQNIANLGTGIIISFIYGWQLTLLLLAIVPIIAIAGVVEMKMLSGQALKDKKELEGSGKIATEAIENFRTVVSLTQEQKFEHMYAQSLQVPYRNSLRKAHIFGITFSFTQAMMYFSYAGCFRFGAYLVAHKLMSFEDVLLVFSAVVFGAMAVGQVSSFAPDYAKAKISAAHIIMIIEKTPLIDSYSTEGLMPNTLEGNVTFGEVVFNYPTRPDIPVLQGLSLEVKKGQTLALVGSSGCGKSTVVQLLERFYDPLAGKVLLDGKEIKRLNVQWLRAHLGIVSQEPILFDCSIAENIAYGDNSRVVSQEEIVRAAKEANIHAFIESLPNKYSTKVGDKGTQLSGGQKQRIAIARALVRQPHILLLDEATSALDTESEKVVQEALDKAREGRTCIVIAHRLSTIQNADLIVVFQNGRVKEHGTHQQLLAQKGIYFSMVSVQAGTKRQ

Broadly, the inhibition is the change of the read-out against control, counted positive when it falls. Turning to `COc1cc2oc(C)cc(=O)c2c2c1C[C@@H](C)[C@@]1(C[C@H](OC)C[C@H](C)O1)O2`, the result in the data set with SW620/AD300 [1], in the data set with SW620/AD300 [2], in the data set with SW620/AD300 [4] and with SW620/AD300 [7] was Active. Moreover, the inhibition result with SW620/AD300 [3] is “inactive”. Also, the outcome in data set [5] was Active. For the same molecule, the inhibition at 20 µM with SW620/AD300 [6] is 77.8%. Turning to `COc1cc2oc(C)cc(=O)c2c2c1C[C@H](C)[C@@]1(O2)O[C@@H](C)C[C@H](O)[C@@H]1O`, the inhibition at 20 µM in the data set with SW620/AD300 [6] was 22%. Regarding `COc1cc2oc(CO)cc(=O)c2c2c1C[C@@H](C)[C@@]1(C[C@@H](NCC/C(C)=C/C(=O)O)C[C@H](C)O1)O2`, the inhibition at 20 µM with SW620/AD300 [6] turned out to be 46.4%. As to `COc1cc2oc(C)cc(=O)c2c2c1CC[C@@]1(O2)O[C@@H](C)C[C@H](O)[C@@H]1O`, in the data set with SW620/AD300 [6], the inhibition at 20 µM worked out at 3.1%. With `COc1cc2oc(C)cc(=O)c2c2c1C[C@@H](C)[C@@]1(O2)O[C@@H](C)C[C@H](O)[C@@H]1O`, the inhibition at 20 µM with SW620/AD300 [6] is 19.6%. Still for that read-out and setting: next, `COc1cc2oc(C)cc(=O)c2c2c1C[C@@H](C)[C@@]1(C[C@H](O)C[C@H](C)O1)O2`: 0.2%.

For the molecule `CC(=O)O[C@H]1C(=O)[C@@]2(C)[C@H]([C@H](OC(=O)c3ccccc3)[C@]3(O)C[C@H](OC(=O)[C@H](O)[C@@H](NC(=O)c4ccccc4)c4ccccc4)C(C)=C1C3(C)C)[C@]1(OC(C)=O)CO[C@@H]1C[C@@H]2O` [PACLITAXEL], the inhibition at 1 µM with SW620/AD300 [8] is 1.1%. Besides, in the data set on SW620/AD300 [9], the inhibition entry was “inactive”.

Regarding `COc1cc2oc(C)cc(=O)c2c2c1C[C@H](C)[C@@]1(O2)O[C@@H](C)CCC1=O`, in the data set on SW620/AD300 [6], the inhibition at 20 µM was 24.5%. Still for that read-out and setting: next, `COc1cc2oc(CO)cc(=O)c2c2c1C[C@H](C)[C@@]1(O2)O[C@@H](C)C[C@H](O)[C@@H]1O`: 15.3%. Regarding `COc1cc2oc(CO)cc(=O)c2c2c1C[C@@H](C)[C@@]1(O2)O[C@@H](C)C[C@H](O)[C@@H]1O`, in the data set with SW620/AD300 [6], the inhibition at 20 µM turned out to be 11.2%. As to `COc1cc2oc(C)cc(=O)c2c2c1C[C@@H](C)[C@@]1(C[C@@H](O)C[C@H](C)O1)O2`, in the data set with SW620/AD300 [6], the inhibition at 20 µM was 10%. Still for that read-out and setting: under `COc1cc2oc(C)cc(=O)c2c2c1C[C@H](C)[C@@]1(C[C@H](OC)C[C@H](C)O1)O2` stands 29.2%; under `COc1cc2oc(C)cc(=O)c2c2c1CC(C)C1(O2)OC(C)CC(O)C1O` (stereo not given), 11.1%.
